Measured values reported in patent publication US6737383B1, “Herbicidal oxadiazolidines” (priority 1999, dated 2004).

Key:
giant foxtail = experiment: Test B pre/postemergence giant foxtail; format: in vivo, Setaria faberii
In short: (§1)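 Test chemicals in a non-phytotoxic solvent mixture with surfactant were sprayed preemergence onto planted seeds and postemergence onto plants 2 to 18 cm tall (1- to 4-leaf stage). After twelve to sixteen days in a greenhouse, injury was visually rated against untreated controls from 0 (no effect) to 10 (complete control).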

sugar beet = experiment: Test B pre/postemergence sugar beet; format: in vivo, Beta vulgaris
In short: as §1

bedstraw = experiment: Test B pre/postemergence bedstraw; format: in vivo, Galium aparine
In short: as §1

purple nutsedge = experiment: Test B pre/postemergence purple nutsedge; format: in vivo, Cyperus rotundus
In short: as §1

duck salad = experiment: Test B flood test duck salad; format: in vivo, Heteranthera limosa
In short: (§2)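 Plants were grown to the 2-leaf stage before treatment with test chemical, then held in a greenhouse for twelve to sixteen days. Injury was visually rated against untreated controls on a 0–10 scale, where 0 is no effect and 10 is complete control.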

corn = experiment: Test B pre/postemergence corn; format: in vivo, Zea mays
In short: as §1

wild oat = experiment: Test B pre/postemergence wild oat; format: in vivo, Avena fatua
In short: as §1

soybean = experiment: Test B pre/postemergence soybean; format: in vivo, Glycine max
In short: as §1

wheat = experiment: Test B pre/postemergence wheat; format: in vivo, Triticum aestivum
In short: as §1

rape = experiment: Test B pre/postemergence rape; format: in vivo, Brassica napus
In short: as §1

velvetleaf = experiment: Test B pre/postemergence velvetleaf; format: in vivo, Abutilon theophrasti
In short: as §1

rice = experiment: Test B flood test rice; format: in vivo, Oryza sativa
In short: as §2

cocklebur = experiment: Test B pre/postemergence cocklebur; format: in vivo, Xanthium strumarium
In short: as §1

pigweed = experiment: Test B pre/postemergence pigweed; format: in vivo, Amaranthus retroflexus
In short: as §1

surinam grass = experiment: Test B pre/postemergence surinam grass; format: in vivo, Brachiaria decumbens
In short: as §1

smallflower flatsedge = experiment: Test B flood test smallflower flatsedge; format: in vivo, Cyperus difformis
In short: as §2

[1] = Postemergence, Rate 125 g/ha, scale of 0 to 10 where 0 is no effect and 10 is complete control
[2] = Preemergence, Rate 62 g/ha, scale 0 to 10 (0 no effect, 10 complete control)
[3] = Preemergence, Rate 125 g/ha, 0 is no effect, 10 is complete control
[4] = Preemergence, Rate 250 g/ha, scale 0 to 10, 0 is no effect, 10 is complete control
[5] = Preemergence, Rate 500 g/ha, scale 0 to 10 (0 no effect, 10 complete control)
[6] = Rate 62 g/ha, Postemergence, scale of 0 to 10 where 0 is no effect and 10 is complete control
[7] = Rate 250 g/ha, Postemergence, scale 0 to 10, 0 is no effect, 10 is complete control
[8] = Rate 500 g/ha, Postemergence, scale 0 to 10
[9] = Postemergence (flood test species), Rate 125 g/ha, scale of 0 to 10 where 0 is no effect and 10 is complete control
[10] = Rate 31 g/ha, Postemergence section (flood test species), scale 0 to 10
[11] = Rate 62 g/ha, Postemergence section, flood test species, scale of 0 to 10 where 0 is no effect and 10 is complete control
[12] = Rate 250 g/ha, Postemergence (flood test), scale 0 to 10, 0 is no effect, 10 is complete control
[13] = Rate 250 g/ha, Pre-emergence, flood-test species, scale 0 to 10, 0 is no effect, 10 is complete control
[14] = Rate 500 g/ha, headed Pre-emergence (flood test species), scale 0 to 10 (0 no effect, 10 complete control)
[15] = Rate 1000 g/ha, Pre-emergence (as headed), scale 0 to 10
[16] = Rate 2000 g/ha, Pre-emergence (as headed), scale 0 to 10

C=C(C)Cn1c(=O)on(C(=O)N(c2ccc(F)cc2)C(C)C)c1=O [Compound 139]
2: Plant response rating, Sugarbeets (sugar beet; [7]) | Sugarbeets plant response rating (sugar beet; [8]) | Bedstraw plant response rating (bedstraw; [1]) | Bedstraw plant response rating (bedstraw; [4]) | Ducksalad plant response rating (duck salad; [16]) | Corn plant response rating (corn; [1]) | Plant response rating, Corn (corn; [7]) | Corn plant response rating (corn; [8]) | Wild oats plant response rating (wild oat; [1]) | Wild oats plant response rating (wild oat; [6]) | Soybean plant response rating (soybean; [1]) | Soybean plant response rating (soybean; [5]) | Wheat plant response rating (wheat; [1]) | Wheat plant response rating (wheat; [4]) | Wheat plant response rating (wheat; [6]) | Rape plant response rating (rape; [1]) | Plant response rating, Rape (rape; [7]) | Velvetleaf plant response rating (velvetleaf; [2]) | Velvetleaf plant response rating (velvetleaf; [6]) | Plant response rating, Cocklebur (cocklebur; [7]) | Cocklebur plant response rating (cocklebur; [8]) | B. signalgrass plant response rating (surinam grass; [1]) | B. signalgrass plant response rating (0 to 10 scale) (surinam grass; [3]) | B. signalgrass plant response rating (surinam grass; [6])
1: Soybean plant response rating (soybean; [6])
8: Giant foxtail plant response rating (giant foxtail; [1]) | Wild oats plant response rating (wild oat; [4]) | Redroot pigweed plant response rating (0 to 10 scale) (pigweed; [3]) | B. signalgrass plant response rating (surinam grass; [4])
10: Giant foxtail plant response rating (giant foxtail; [2]) | Giant foxtail plant response rating (0 to 10 scale) (giant foxtail; [3]) | Giant foxtail plant response rating (giant foxtail; [4]) | Giant foxtail plant response rating (giant foxtail; [5]) | Redroot pigweed plant response rating (pigweed; [4]) | Redroot pigweed plant response rating (pigweed; [5])
3: Sugarbeets plant response rating (sugar beet; [2]) | Sugarbeets plant response rating (0 to 10 scale) (sugar beet; [3]) | Wild oats plant response rating (wild oat; [2]) | Velvetleaf plant response rating (0 to 10 scale) (velvetleaf; [3]) | Redroot pigweed plant response rating (pigweed; [1]) | Redroot pigweed plant response rating (pigweed; [6])
4: Sugarbeets plant response rating (sugar beet; [4]) | Nutsedge plant response rating (purple nutsedge; [8]) | Corn plant response rating (corn; [4]) | Plant response rating, Wild oats (wild oat; [7]) | Wild oats plant response rating (wild oat; [8]) | Plant response rating, Soybean (soybean; [7]) | Wheat plant response rating (wheat; [5]) | Plant response rating, Wheat (wheat; [7]) | Wheat plant response rating (wheat; [8]) | Rape plant response rating (rape; [4]) | Rape plant response rating (rape; [8]) | Velvetleaf plant response rating (velvetleaf; [1]) | Plant response rating, Redroot pigweed (pigweed; [7]) | Redroot pigweed plant response rating (pigweed; [8])
6: Giant foxtail plant response rating (giant foxtail; [6]) | Sugarbeets plant response rating (sugar beet; [5]) | Velvetleaf plant response rating (velvetleaf; [8]) | Redroot pigweed plant response rating (pigweed; [2]) | Plant response rating, B. signalgrass (surinam grass; [7])
0: Sugarbeets plant response rating (sugar beet; [1]) | Sugarbeets plant response rating (sugar beet; [6]) | Bedstraw plant response rating (bedstraw; [2]) | Bedstraw plant response rating (0 to 10 scale) (bedstraw; [3]) | Nutsedge plant response rating (purple nutsedge; [1]) | Nutsedge plant response rating (purple nutsedge; [2]) | Nutsedge plant response rating (0 to 10 scale) (purple nutsedge; [3]) | Nutsedge plant response rating (purple nutsedge; [4]) | Nutsedge plant response rating (purple nutsedge; [5]) | Nutsedge plant response rating (purple nutsedge; [6]) | Plant response rating, Nutsedge (purple nutsedge; [7]) | Ducksalad plant response rating (duck salad; [9]) | Ducksalad plant response rating (duck salad; [10]) | Ducksalad plant response rating (duck salad; [11]) | Plant response rating, Ducksalad (duck salad; [12]) | Ducksalad plant response rating (duck salad; [13]) | Plant response rating, Ducksalad (duck salad; [14]) | Ducksalad plant response rating (duck salad; [15]) | Corn plant response rating (corn; [2]) | Corn plant response rating (0 to 10 scale) (corn; [3]) | Corn plant response rating (corn; [6]) | Soybean plant response rating (soybean; [2]) | Soybean plant response rating (0 to 10 scale) (soybean; [3]) | Soybean plant response rating (soybean; [4]) | Wheat plant response rating (wheat; [2]) | Wheat plant response rating (0 to 10 scale) (wheat; [3]) | Rape plant response rating (rape; [2]) | Rape plant response rating (0 to 10 scale) (rape; [3]) | Rape plant response rating (rape; [6]) | Rice plant response rating (rice; [9]) | Rice plant response rating (rice; [10]) | Rice plant response rating (rice; [11]) | Plant response rating, Rice (rice; [12]) | Rice plant response rating (rice; [13]) | Plant response rating, Rice (rice; [14]) | Rice plant response rating (rice; [15]) | Rice plant response rating (rice; [16]) | Cocklebur plant response rating (cocklebur; [1]) | Cocklebur plant response rating (cocklebur; [2]) | Cocklebur plant response rating (0 to 10 scale) (cocklebur; [3]) | Cocklebur plant response rating (cocklebur; [4]) | Cocklebur plant response rating (cocklebur; [5]) | Cocklebur plant response rating (cocklebur; [6]) | B. signalgrass plant response rating (surinam grass; [2]) | S. Flatsedge plant response rating (smallflower flatsedge; [9]) | S. Flatsedge plant response rating (smallflower flatsedge; Pre-emergence, Rate 1000 g/ha, scale 0 to 10 (0 no effect, 10 complete control)) | S. Flatsedge plant response rating (smallflower flatsedge; [11]) | Plant response rating, S. Flatsedge (smallflower flatsedge; [12]) | S. Flatsedge plant response rating (smallflower flatsedge; [13]) | S. Flatsedge plant response rating (smallflower flatsedge; Rate 500 g/ha, Pre-emergence, flood test species, scale 0 to 10 (0 no effect, 10 complete control)) | S. Flatsedge plant response rating (smallflower flatsedge; [16])
9: Plant response rating, Giant foxtail (giant foxtail; [7]) | Giant foxtail plant response rating (giant foxtail; [8]) | Bedstraw plant response rating (bedstraw; [5]) | Wild oats plant response rating (wild oat; [5]) | Rape plant response rating (rape; [5]) | B. signalgrass plant response rating (surinam grass; [5])
5: Plant response rating, Bedstraw (bedstraw; [7]) | Bedstraw plant response rating (bedstraw; Rate 500 g/ha, Postemergence, scale 0 to 10, 0 no effect, 10 complete control) | Soybean plant response rating (soybean; [8]) | Velvetleaf plant response rating (velvetleaf; [4]) | Plant response rating, Velvetleaf (velvetleaf; [7])
7: Corn plant response rating (corn; [5]) | Wild oats plant response rating (0 to 10 scale) (wild oat; [3]) | Velvetleaf plant response rating (velvetleaf; [5]) | B. signalgrass plant response rating (surinam grass; Rate 500 g/ha, Postemergence, scale of 0 to 10 where 0 is no effect and 10 is complete control)
